The text below walks through data of US20220096454A1, “CARBOXYLIC ACID DERIVATIVES” (Merck Patent GmbH, priority 2018, published 2022).

In one test the target is T1, TNKS1 (Homo sapiens, UniProt O95271).
T1 construct: GST-tagged Tnks-1 (1023-1327 aa, prepared in-house); made in house
The test can be described thus: TNKS1 activity ELISA (autoparsylation assay). In kind it is biochemical. As to conditions: GST-tagged Tnks-1 (1023-1327 aa), 10 μM bio-NAD, 1 hour at 30° C. The protocol:
(§1) Description of the TNKS1 and TNKS2 ELISA Assay
(§2) Biochemical activity testing of TNKS 1 and 2: activity ELISA (Autoparsylation assay)
(§3) For analysis of autoparsylation activity of TNKS 1 and 2 an activity ELISA is performed: In the first step GST tagged TNKS is captured on a Glutathione coated plate. Then the activity assay with biotinylated NAD is performed in the absence/presence of the compounds. During the enzymatic reaction GST tagged TNKS transfers biotinylated ADP-ribose to itself from biotinylated NAD as co-substrate. For the detection streptavidin-HRP conjugate is added that binds to the biotinylated TNKS and is thereby captured to the plates. The amount of biotinylated resp. autoparsylated TNKS is detected with a luminescence substrate for HRP. The level of the luminescence signal correlates directly with the amount of autoparsylated TNKS and therefore with activity of TNKS.
(§4) The activity ELISA is performed in 384 well Glutathione coated microtiter plates (Express capture Glutathione coated plate, Biocat, Heidelberg, Germany). The plates are pre-equilibrated with PBS. […] The plates are washed 3 times with PBS-Tween-20. The wells are blocked by incubation at room temperature for 20 minutes with 50 μl blocking buffer (PBS, 0.05% Tween-20, 0.5% BSA). Afterwards the plates are washed 3 times with PBS-Tween-20. […] The reaction is stopped by 3 times washing with PBS-Tween-20. For the detection 50 μl of 20 ng/μl Streptavidin, HRP conjugate (MoBiTec, Göttingen, Germany) in PBS/0.05% Tween-20/0.01% BSA are added and the plates are incubated for 30 minutes at room temperature. After three times washing with PBS-Tween-20 50 μl of SuperSignal ELISA Femto Maximum sensitivity substrate solution (ThermoFisherScientific (Pierce), Bonn, Germany) are added. Following a 1 minute incubation at room temperature luminescence signals are measured with an Envision multimode reader (Perkin Elmer LAS Germany GmbH) at 700 nm. The full value used is the inhibitor-free reaction. […] The inhibitory values (IC50) are determined using either the program Symyx Assay Explorer® or Condosseo® from GeneData.
In general terms: An ELISA detects its analyte on a solid surface through an enzyme-linked reagent.

The target of the next test is T2, TNKS2 (Homo sapiens, UniProt Q9H2K2).
T2 construct: GST-tagged Tnks-2 (873-1166 aa, prepared in-house); made in house
T2 sequence (Q9H2K2 873-1166): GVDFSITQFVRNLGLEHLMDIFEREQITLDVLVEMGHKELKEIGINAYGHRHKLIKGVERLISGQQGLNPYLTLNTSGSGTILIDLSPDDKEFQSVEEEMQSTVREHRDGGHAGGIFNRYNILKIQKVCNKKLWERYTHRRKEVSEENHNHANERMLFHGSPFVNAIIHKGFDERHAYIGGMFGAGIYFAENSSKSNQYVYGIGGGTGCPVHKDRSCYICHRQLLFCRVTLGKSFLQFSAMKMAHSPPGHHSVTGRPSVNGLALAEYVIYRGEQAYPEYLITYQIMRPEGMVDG
Briefly: TNKS2 activity ELISA (autoparsylation assay). In kind it is biochemical. The note with it: GST-tagged Tnks-2 (873-1166 aa), 10 μM bio-NAD, 1 hour at 30° C. Here is the method: as §1, §2, §3, §4

Another test has as its system Tankyrases. As to conditions: read-out: EC50 [M] TNKS cellular assay; increase of Axin2 level in colon carcinoma cell line DLD1, 24 hours.

The structures appear in SMILES notation.

T1 sequence (O95271 1023-1327): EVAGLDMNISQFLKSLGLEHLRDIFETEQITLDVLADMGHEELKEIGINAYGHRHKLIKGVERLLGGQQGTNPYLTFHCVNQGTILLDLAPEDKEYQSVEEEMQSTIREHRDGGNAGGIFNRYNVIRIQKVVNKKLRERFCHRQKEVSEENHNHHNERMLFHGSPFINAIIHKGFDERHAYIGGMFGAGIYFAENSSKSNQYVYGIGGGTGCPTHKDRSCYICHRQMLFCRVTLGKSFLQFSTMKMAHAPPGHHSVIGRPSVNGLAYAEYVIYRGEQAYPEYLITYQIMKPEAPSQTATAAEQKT
Experimental for Tankyrases: Measurement of Cellular Inhibition of Tankyrase
Cells of the colon carcinoma cell line DLD1 are plated in 96 well plates with 1.5×10^4 cells per well. Next day, cells are treated with a serial dilution of test compound in seven steps as triplicates with a final DMSO concentration of 0.3%. […] The amount of isolated Axin2 protein is determined in a Luminex^200 machine (Luminex Corporation) according to the manufacturer's instruction by counting 100 events per well. […] As controls cells are treated with solvent alone (neutral control) and with a Tankyrase reference inhibitor IWR-2 (3E−06 M) which refers as control for maximum increase of Axin2. For analysis, the obtained data are normalized against the untreated solvent control and fitted for determination of the EC50 values using the Assay Explorer software (Accelrys).

As to `CN(C(=O)N1CCC(C(=O)c2ccc3cnn(C)c3c2)CC1)c1cccc(C(=O)O)c1` [Compound C19, 3-{Methyl-[4-(1-methyl-1H-indazole-6-carbonyl)-piperidine-1-carbonyl]-amino}-benzoic Acid], the half-maximal inhibitory concentration (IC50) – broadly, the midpoint of a concentration-inhibition curve – came out at 2.2 nM against TNKS1 and 1.4 nM against TNKS2. In addition, in the test on Tankyrases, the EC50 (in general, the concentration giving half of the maximal effect) was 1.4e-06 M.

Turning to `CCN(C(=O)N1CCC(C(=O)c2ccc3c(c2)ncn3C)CC1)c1cccc(C(=O)O)c1` [Compound C33, 3-{Ethyl-[4-(1-methyl-1H-benzimidazole-5-carbonyl)-piperidine-1-carbonyl]-amino}-benzoic Acid], the IC50 turned out to be 3.3 nM on TNKS1 and 1.5 nM against TNKS2. Moreover, in the test on Tankyrases, the EC50 was found to be 3.6e-06 M.

As to `CCN(C(=O)N1CCC(C(=O)c2ccc3c(C(=O)O)nn(C)c3c2)CC1)c1ccc(F)cc1` [Compound C10, 6-{1-[Ethyl-(4-fluoro-phenyl)-carbamoyl]-piperidine-4-carbonyl}-1-methyl-1H-indazole-3-carboxylic Acid], the IC50 against TNKS1 was found to be 0.744 nM; against TNKS2, 0.432 nM. The EC50 in the test with Tankyrases was 4.6e-07 M.

For the compound `CCN(C(=O)N1CCC(C(=O)c2ccc3c(c2)c(C(=O)O)nn3C)CC1)c1ccc(F)cc1` [Compound C14, 5-{1-[Ethyl-(4-fluoro-phenyl)-carbamoyl]-piperidine-4-carbonyl}-1-methyl-1H-indazole-3-carboxylic Acid], the figures for the IC50 at TNKS1 and against TNKS2 were 12.4 nM and 5.91 nM, respectively. Moreover, the EC50 in the test with Tankyrases amounted to 9.4e-06 M.

In the case of `CN(C(=O)N1CCC(C(=O)c2ccc3c(cnn3C)c2)CC1)c1cccc(C(=O)O)c1` [Compound C24, 3-{Methyl-[4-(1-methyl-1H-indazole-5-carbonyl)-piperidine-1-carbonyl]-amino}-benzoic Acid], the 50% inhibitory concentration (IC50) at TNKS1 came out at 1.3 nM; against TNKS2 it was 0.63 nM. Besides, in the test with Tankyrases, the EC50 is 6.4e-07 M.

For `CCN(C(=O)N1CCC(C(=O)c2ccc3nnn(C)c3c2)CC1)c1ccc(C(=O)O)cc1` [Compound C35, 4-{Ethyl-[4-(3-methyl-3H-benzotriazole-5-carbonyl)-piperidine-1-carbonyl]-amino}-benzoic Acid], the IC50 on TNKS1 stood at 0.472 nM; on TNKS2 it was 0.192 nM. The EC50 in the test with Tankyrases was found to be 3.1e-07 M.

Regarding `CN(C(=O)N1CCC(C(=O)c2ccc3cnn(C)c3c2)CC1)c1ccc(C(=O)O)nc1` [Compound C21, 5-{Methyl-[4-(1-methyl-1H-indazole-6-carbonyl)-piperidine-1-carbonyl]-amino}-pyridine-2-carboxylic Acid], the figures for the half-inhibitory concentration (IC50) at TNKS1 and on TNKS2 were 37 nM and 14 nM, respectively. Further, in the test on Tankyrases, the EC50 is 1.5e-05 M.
